In patent US9765063B2, “Amido compounds as RORγt modulators and uses thereof” (New York University, priority 2011, dated 2017):
Read-outs that look alike come from different tables or passages of the source.

Molecular target: T1, RORγt (Mus musculus, UniProt P51450)
T1 construct: expressed in transfected cells; the other entry of the earlier key: GAL4 (P04386, Regulatory protein GAL4)
Experiment: RORγt S2 cell reporter assay (Gal4-RORγt fusion, UAS-luciferase)
Assay type: cell-based
Conditions: for IC50: Drosophila S2 cells, luciferase reporter, read-out: IC50; for Emax: % of the maximal response of control inhibitor (Digoxin), set at 100%, read-out: Efficacy (%)
Description: Methods: The Drosophila S2 cell line was originally purchased from Invitrogen and was maintained in Schneider's medium supplemented with 10% heat-inactivated bovine fetal calf serum and antibiotics (Invitrogen). […] The resulting chimeric gene was subcloned into the copper inducible pMT/V5-His A vector (available from Invitrogen).
Renilla luciferase construct under the polIII promoter was obtained from Dr. Dasgupta's laboratory (NYU medical center). In order to generate stable cell lines, cells were co-transfected with pMT-G4DBD-RORγt, pMT-G4DBD-RORα, pMT-G4DBD-DHR3, or pMT-G4DBDVP16 and pHygro plasmids (Invitrogen) and screened for resistant colonies in the presence of hygromycin (0.3 mg/mL). […] Using similar methods, stable clones with genomic integration of the luciferase reporters and other reporters were generated such as pMT-RORα_luc, pMT-DHR3_luc, or pMT-VP16_luc.
Methods: 600 G4DBD-RORγ/γt-luc reporter (#25) or G4DBD-VP16-luc reporter cells were distributed into each well of 1,536-well white bottom plates in 4 μl S2 cell culture volume containing hygromicin (300 μg/ml) and puromycin (2 μg/ml). […] After one-hour incubation, 1 of culture medium solution containing copper sulfate (to final 0.7 mM) and 10 μM RORγ/γt antagonists were added to each well. After 20-hour incubation at ambient temperature, 1.5 μl firefly luciferase detection mix was added and the luciferase activities were measured in 10 min. ViewLux luminometers were used for measuring luciferase signal.
A cell-based reporter assay was used to detect RORγt-mediated activity. This assay, called RORγt employed Drosophila Schneider cells that were stably transfected with two vectors: a gene expressing a fusion of the Gal4 DNA binding domain and RORγt transactivation domain under the control of the metallothionine promoter and a Photinus luciferase reporter regulated by the Gal4 binding site enhancer, UAS. […] Cells (600/well) were dispensed into white solid 1536-well plates (Greiner) using a solenoid-based dispenser. Following transfer of […] compound or DMSO vehicle by a pin tool, the plates were incubated 1 hr at ambient temperature, and 1 uL/well copper sulfate (700 uM final concentration) was added. The plates were centrifuged 15 s at 1000 RPM and incubated 20 hr at ambient temperature. After addition of 1.5 uL Photinus luciferase detection reagent, the plates were incubated 10 min at ambient temperature and then read by a ViewLux (Perkin Elmer) to detect luminescence. […] Efficacy is expressed as % of the maximal response of control inhibitor (Digoxin), set at 100%.

T1 sequence (P51450 with tags, fused parts or gaps): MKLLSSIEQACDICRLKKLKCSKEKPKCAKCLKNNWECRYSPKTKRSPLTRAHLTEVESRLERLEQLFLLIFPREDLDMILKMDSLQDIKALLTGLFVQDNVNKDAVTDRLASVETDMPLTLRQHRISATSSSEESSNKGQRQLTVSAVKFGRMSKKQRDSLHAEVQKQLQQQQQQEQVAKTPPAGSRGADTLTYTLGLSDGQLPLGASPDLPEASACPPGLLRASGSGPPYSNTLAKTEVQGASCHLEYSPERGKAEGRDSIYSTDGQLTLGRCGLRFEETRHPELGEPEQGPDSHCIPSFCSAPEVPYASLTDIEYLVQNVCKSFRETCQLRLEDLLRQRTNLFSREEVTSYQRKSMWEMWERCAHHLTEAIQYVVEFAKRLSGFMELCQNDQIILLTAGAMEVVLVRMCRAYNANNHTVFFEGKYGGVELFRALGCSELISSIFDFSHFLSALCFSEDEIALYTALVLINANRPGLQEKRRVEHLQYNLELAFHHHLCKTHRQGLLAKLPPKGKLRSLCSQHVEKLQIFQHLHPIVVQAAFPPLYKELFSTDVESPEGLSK

IC50 (Table 1A) [µM]	Emax (Table 1) [%]	IC50 (Table 1) [µM]	Structure (SMILES)
< 1	–	–	COc1cc(O)c(C(CC(=O)N2CC(C)C[C@@H](C)C2)c2nc3ccccc3s2)c(OC)c1 (stereo in doubt) [Compound 205, 1-(3,5-Dimethylpiperidin-1-yl)-3-(4,6-dimethoxy-2-hydroxy-phenyl)-3-(benzothiazol-2-yl)propan-1-one]
–	95	1 to 10	COc1cc(O)c(C(CC(=O)N2CCCC(C)C2)c2cccs2)c(OC)c1 (stereo not shown) [Compound 70]
–	-90.8	1 to 10	COc1cc(O)c(C(CC(=O)N2CC(C)CC(C)C2)c2csc3ccccc23)c(OC)c1 (stereo not shown) [Compound 79]
–	93.8	1 to 10	COc1cc(O)c(C(CC(=O)N2CC(C)CC(C)C2)c2cccc(S(C)(=O)=O)c2)c(OC)c1 (stereo not shown) [Compound 83, 1-(3,5-Dimethylpiperidin-1-yl)-3-(2-hydroxy-4,6-dimethoxyphenyl)-3-(3-(methylsulfonyl)phenyl)propan-1-one]
–	103	11 to 50	COc1cc(O)c(C(CC(=O)N2CC(C)CC(C)C2)c2ccc(S(=O)(=O)N(C)C)cc2)c(OC)c1 (stereo not shown) [Compound 84]
–	–	1 to 10	COc1cc(O)c(C(CC(=O)N2CC(C)CC(C)C2)c2ccc(C(=O)NC3CC3)cc2)c(OC)c1 (stereo not shown) [Compound 95]
–	93.6	< 1	COc1cc(O)c(C(CC(=O)N2CC(C)CC(C)C2)c2ccc(C(C)=O)cc2)c(OC)c1 (stereo not shown) [Compound 100, 3-(4-Acetylphenyl)-1-(3,5-dimethylpiperidin-1-yl)-3-(2-hydroxy-4,6-dimethoxyphenyl)propan-1-one]
–	96.9	1 to 10	COc1cc(O)c(C(CC(=O)N2CC(C)CC(C)C2)c2cccnc2)c(OC)c1 (stereo not shown) [Compound 106, 1-(3,5-Dimethylpiperidin-1-yl)-3-(2-hydroxy-4,6-dimethoxyphenyl)-3-(pyridin-3-yl)propan-1-one]
–	94.9	1 to 10	COc1cc(O)c(C(CC(=O)N2CC(C)CC(C)C2)c2cccs2)c(OC)c1 (stereo not shown) [Compound 107, 1-(3,5-Dimethylpiperidin-1-yl)-3-(2-hydroxy-4,6-dimethoxyphenyl)-3-(thiophen-2-yl)propan-1-one]
–	119	11 to 50	COc1cc(O)c(C(CC(=O)N2CC(C)CC(C)C2)c2ccncc2)c(OC)c1 (stereo not shown) [Compound 108, 1-(3,5-Dimethylpiperidin-1-yl)-3-(2-hydroxy-4,6-dimethoxyphenyl)-3-(pyridin-4-yl)propan-1-one]
–	96.7	1 to 10	COc1cc(O)c(C(CC(=O)N2CC(C)CC(C)C2)c2ccc(C(N)=O)cc2)c(OC)c1 (stereo not shown) [Compound 111]
–	94.5	1 to 10	COc1c(C(CC(=O)N2CC(C)CC(C)C2)c2ccc3c(c2)OCO3)c(O)cc2occc12 (stereo not shown) [Compound 139]
–	–	1 to 10	CC1CC(C)CN(C(=O)CC(c2ccc3c(c2)OCO3)c2c(O)ccc3cccnc23)C1 (stereo not shown) [Compound 146]
–	87	< 1	COc1cc(OC)c(C(CC(=O)N2C[C@H](C)C[C@H](C)C2)c2ccc(C(=O)O)cc2)c(OC)c1 (stereo partly drawn) [Compound 201, 4-(3-(3,5-cis-Dimethylpiperidin-1-yl)-3-oxo-1-(2,4,6-trimethoxyphenyl)-propyl)benzoic acid]
< 1	–	–	COc1cc(O)c(C(CC(=O)N2C[C@H](C)C[C@H](C)C2)c2ccc(C(=O)O)cc2)c(OC)c1 (stereo partly drawn) [Compound 202, 4-(3-(3,5-cis-Dimethylpiperidin-1-yl)-1-(2-hydroxy-4,6-dimethoxyphenyl)-3-oxopropyl)benzoic acid]
1 to 10	–	–	COc1cc(O)c(C(CC(=O)N2C[C@H](C)C[C@H](C)C2)c2c[nH]c(C)n2)c(OC)c1 (stereo partly shown) [Compound 203]
1 to 10	–	–	COc1cc(O)c(C(CC(=O)N2C[C@H](C)C[C@H](C)C2)c2cnccn2)c(OC)c1 (stereo partly shown) [Compound 204, 1-(3,5-Dimethylpiperidin-1-yl)-3-(4,6-dimethoxy-2-hydroxy-phenyl)-3-(pyrazin-2-yl)propan-1-one]
